assay: Metabolic stability in human liver microsomes assessed as compound remaining after 30 mins; type: ADME, Microsome; conditions: read-out: Stability

Row | Compound | remaining at 0.5 h [%]
1 | CC(C)(C)C(=O)C[S+]([O-])c1nnnn1-c1ccccc1 (configuration not stated) | 25
2 | O=C(CCc1nnnn1C1CCCc2ccccc21)c1ccccc1 (configuration not stated) | 7
3 | O=C(CCc1nnnn1-c1ccccc1)c1cccc(F)c1 | 21
4 | O=C(CCc1nnnn1C1CCc2ccccc21)c1ccccc1 (configuration not stated) | 1
5 | N#Cc1ccc(-n2nnnc2CCC(=O)c2ccccc2)cc1 | 37
6 | COc1cccc(C(=O)CCc2nnnn2-c2ccccc2)c1 | 14
7 | O=C(CCc1nnnn1-c1ccccc1)C1CCCCC1 | 11
8 | O=C(CCc1nnnn1C1CCCCC1)c1ccccc1 | 14
9 | O=C(CCc1nnnn1-c1ccc(Cl)cc1)c1ccccc1 | 34
10 | O=C(COc1nnnn1-c1ccccc1)c1ccccc1 | 4
11 | COc1ccc(-n2nnnc2CCC(=O)c2ccccc2)cc1 | 12
12 | O=C(CCc1nnnn1-c1ccccc1)c1cccc(Cl)c1 | 8
13 | CC(C)(C)C(=O)CS(=O)(=O)c1nnnn1-c1ccccc1 | 4
14 | O=C(CCc1nnnn1C1CC1)c1ccccc1 | 73

The next lines start with the values.

Row | remaining at 0.5 h [%] | Compound
15 | 6 | COc1cccc(-n2nnnc2CCC(=O)c2ccccc2)c1
16 | 11 | O=C(CCn1nnnc1-c1ccc2c(c1)OCO2)c1ccccc1
17 | 9 | COc1ccccc1-c1nnnn1CCC(=O)c1ccccc1
18 | 20 | O=C(CCn1nnnc1-c1cccc(Cl)c1)c1ccccc1
19 | 42 | COc1ccccc1-n1nnnc1CCC(=O)c1ccccc1
20 | 2 | Cc1cccc(-n2nnnc2CCC(=O)c2ccccc2)c1
21 | 81 | O=C(CCn1nnnc1-c1cccnc1)c1ccccc1
22 | 81 | O=C(CCc1nnnn1-c1cccnc1)c1ccccc1
23 | 29 | O=C(CCn1nnnc1-c1ccccc1)c1ccccc1
24 | 88 | O=C(CCc1nnnn1-c1ccccc1)c1ccccc1
25 | 33 | O=C(CCc1nnnn1Cc1ccccc1)c1ccccc1
26 | 6 | O=C(CCn1nnnc1-c1ccsc1)c1ccccc1
27 | 18 | COc1ccc(-c2nnnn2CCC(=O)c2ccccc2)cc1
28 | 22 | Cc1ccccc1-n1nnnc1CCC(=O)c1ccccc1
29 | 5 | O=C(CCn1nnnc1-c1ccccc1Cl)c1ccccc1
30 | 2 | Cc1ccc(-n2nnnc2CCC(=O)c2ccccc2)cc1
31 | 53 | O=C(CCn1nnnc1-c1ncccn1)c1ccccc1
32 | 31 | O=C(CCn1nnnc1-c1cnccn1)c1ccccc1

From ChEMBL document CHEMBL1155502, “Modulation of 11beta-hydroxysteroid dehydrogenase type 1 activity by 1,5-substituted 1H-tetrazoles” (Bioorg Med Chem Lett, 2010)
